Data reported in PMC12420824, “Discovery of a selective alpha-kinase 1 inhibitor for the rare genetic disease ROSAH syndrome” (Nature Communications, 2025).

Columns and labels:
[1] = biological target: EPHA6 (Homo sapiens, UniProt Q9UF33); test: HotSpot kinase assay; conditions: read-out: % Enzyme Activity (relative to DMSO control), 10 uM
[2] = biological target: PKCa (Homo sapiens, UniProt P17252); test: HotSpot kinase assay; conditions: read-out: % Enzyme Activity (relative to DMSO control), 10 uM
Text: (§1) Additionally, a 10-dose dilution series of staurosporine and other enzyme-appropriate compounds were included as positive control inhibitors.

[3] = biological target: ACK1 (Homo sapiens, UniProt Q07912); test: HotSpot kinase assay; conditions: read-out: % Enzyme Activity (relative to DMSO control), 10 uM
[4] = biological target: CDK18/cyclin Y (PCTK3) (Homo sapiens, UniProt Q07002); test: HotSpot kinase assay; conditions: read-out: % Enzyme Activity (relative to DMSO control), 10 uM
Text: as §1

[5] = biological target: VRK2 (Homo sapiens, UniProt Q86Y07); test: HotSpot kinase assay; conditions: read-out: % Enzyme Activity (relative to DMSO control), 10 uM
[6] = biological target: TTBK1 (Homo sapiens, UniProt Q5TCY1); test: HotSpot kinase assay; conditions: read-out: % Enzyme Activity (relative to DMSO control), 10 uM
Text: as §1

[7] = biological target: CK1a1 (Homo sapiens, UniProt P48729); test: HotSpot kinase assay; conditions: read-out: % Enzyme Activity (relative to DMSO control), 10 uM
Text: as §1

[8] = biological target: ERK1 (Homo sapiens, UniProt P27361); test: HotSpot kinase assay; conditions: read-out: % Enzyme Activity (relative to DMSO control), 10 uM
Text: as §1

[9] = biological target: TLK1 (Homo sapiens, UniProt Q9UKI8); test: HotSpot kinase assay; conditions: read-out: % Enzyme Activity (relative to DMSO control), 10 uM
Text: as §1

[10] = biological target: CDK2/CYCLIN E (Homo sapiens, UniProt P24941); test: HotSpot kinase assay; conditions: read-out: % Enzyme Activity (relative to DMSO control), 10 uM
Text: as §1

[11] = biological target: AKT1 (Homo sapiens, UniProt P31749); test: HotSpot kinase assay; conditions: read-out: % Enzyme Activity (relative to DMSO control), 10 uM
[12] = biological target: ULK1 (Homo sapiens, UniProt O75385); test: HotSpot kinase assay; conditions: read-out: % Enzyme Activity (relative to DMSO control), 10 uM
Text: as §1

[13] = biological target: GRK4 (Homo sapiens, UniProt P32298); test: HotSpot kinase assay; conditions: read-out: % Enzyme Activity (relative to DMSO control), 10 uM
Text: as §1

[14] = biological target: CDK1/cyclin A (Homo sapiens, UniProt P06493); test: HotSpot kinase assay; conditions: read-out: % Enzyme Activity (relative to DMSO control), 10 uM
Text: as §1

[15] = biological target: PAK6 (Homo sapiens, UniProt Q9NQU5); test: HotSpot kinase assay; conditions: read-out: % Enzyme Activity (relative to DMSO control), 10 uM
Text: as §1

[16] = biological target: PKCg (Homo sapiens, UniProt P05129); test: HotSpot kinase assay; conditions: read-out: % Enzyme Activity (relative to DMSO control), 10 uM
Text: as §1

[17] = biological target: LOK/STK10 (Homo sapiens, UniProt O94804); test: HotSpot kinase assay; conditions: read-out: % Enzyme Activity (relative to DMSO control), 10 uM
Text: as §1

[18] = 28 day GLP toxicology study; format: in vivo; conditions: dogs
[19] = biological target: p70S6Kb/RPS6KB2 (Homo sapiens, UniProt Q9UBS0); test: HotSpot kinase assay; conditions: read-out: % Enzyme Activity (relative to DMSO control), 10 uM
[20] = biological target: SSTK/TSSK6 (Homo sapiens, UniProt Q9BXA6); test: HotSpot kinase assay; conditions: read-out: % Enzyme Activity (relative to DMSO control), 10 uM
[21] = biological target: FGFR3 (Homo sapiens, UniProt P22607); test: HotSpot kinase assay; conditions: read-out: % Enzyme Activity (relative to DMSO control), 10 uM
Text: as §1

[22] = biological target: IRAK4 (Homo sapiens, UniProt Q9NWZ3); test: HotSpot kinase assay; conditions: read-out: % Enzyme Activity (relative to DMSO control), 10 uM
Text: as §1

[23] = biological target: PKAcb (Homo sapiens, UniProt P22694); test: HotSpot kinase assay; conditions: read-out: % Enzyme Activity (relative to DMSO control), 10 uM
Text: as §1

[24] = biological target: MKK6 (Homo sapiens, UniProt P52564); test: HotSpot kinase assay; conditions: read-out: % Enzyme Activity (relative to DMSO control), 10 uM
Text: as §1

[25] = biological target: MASTL (Homo sapiens, UniProt Q96GX5); test: HotSpot kinase assay; conditions: read-out: % Enzyme Activity (relative to DMSO control), 10 uM
Text: as §1

[26] = biological target: PIM1 (Homo sapiens, UniProt P11309); test: HotSpot kinase assay; conditions: read-out: % Enzyme Activity (relative to DMSO control), 10 uM
Text: as §1

[27] = biological target: TRKC (Homo sapiens, UniProt Q16288); test: HotSpot kinase assay; conditions: read-out: % Enzyme Activity (relative to DMSO control), 10 uM
Text: as §1

[28] = biological target: AMPK (A2/B1/G3) (Homo sapiens, UniProt P54646); test: HotSpot kinase assay; conditions: read-out: % Enzyme Activity (relative to DMSO control), 10 uM
Text: as §1

[29] = biological target: MELK (Homo sapiens, UniProt Q14680); test: HotSpot kinase assay; conditions: read-out: % Enzyme Activity (relative to DMSO control), 10 uM
[30] = biological target: PKN3/PRK3 (Homo sapiens, UniProt Q6P5Z2); test: HotSpot kinase assay; conditions: read-out: % Enzyme Activity (relative to DMSO control), 10 uM
[31] = biological target: PKCIOTA (Homo sapiens, UniProt P41743); test: HotSpot kinase assay; conditions: read-out: % Enzyme Activity (relative to DMSO control), 10 uM
Text: as §1

[32] = biological target: ASK1/MAP3K5 (Homo sapiens, UniProt Q99683); test: HotSpot kinase assay; conditions: read-out: % Enzyme Activity (relative to DMSO control), 10 uM
Text: as §1

[33] = biological target: SRMS (Homo sapiens, UniProt Q9H3Y6); test: HotSpot kinase assay; conditions: read-out: % Enzyme Activity (relative to DMSO control), 10 uM
[34] = biological target: WEE1 (Homo sapiens, UniProt P30291); test: HotSpot kinase assay; conditions: read-out: % Enzyme Activity (relative to DMSO control), 10 uM
Text: as §1

[35] = biological target: ARAF (Homo sapiens, UniProt P10398); test: HotSpot kinase assay; conditions: read-out: % Enzyme Activity (relative to DMSO control), 10 uM
[36] = biological target: CDK3/cyclin E (Homo sapiens, UniProt Q00526); test: HotSpot kinase assay; conditions: read-out: % Enzyme Activity (relative to DMSO control), 10 uM
Text: as §1

[37] = biological target: CLK2 (Homo sapiens, UniProt P49760); test: HotSpot kinase assay; conditions: read-out: % Enzyme Activity (relative to DMSO control), 10 uM
Text: as §1

[38] = biological target: NIM1 (Homo sapiens, UniProt Q8IY84); test: HotSpot kinase assay; conditions: read-out: % Enzyme Activity (relative to DMSO control), 10 uM
Text: as §1

[39] = biological target: NEK11 (Homo sapiens, UniProt Q8NG66); test: HotSpot kinase assay; conditions: read-out: % Enzyme Activity (relative to DMSO control), 10 uM
Text: as §1

[40] = biological target: SRPK2 (Homo sapiens, UniProt P78362); test: HotSpot kinase assay; conditions: read-out: % Enzyme Activity (relative to DMSO control), 10 uM
Text: as §1

Sequence of ASK1/MAP3K5 (Q99683 whole entry): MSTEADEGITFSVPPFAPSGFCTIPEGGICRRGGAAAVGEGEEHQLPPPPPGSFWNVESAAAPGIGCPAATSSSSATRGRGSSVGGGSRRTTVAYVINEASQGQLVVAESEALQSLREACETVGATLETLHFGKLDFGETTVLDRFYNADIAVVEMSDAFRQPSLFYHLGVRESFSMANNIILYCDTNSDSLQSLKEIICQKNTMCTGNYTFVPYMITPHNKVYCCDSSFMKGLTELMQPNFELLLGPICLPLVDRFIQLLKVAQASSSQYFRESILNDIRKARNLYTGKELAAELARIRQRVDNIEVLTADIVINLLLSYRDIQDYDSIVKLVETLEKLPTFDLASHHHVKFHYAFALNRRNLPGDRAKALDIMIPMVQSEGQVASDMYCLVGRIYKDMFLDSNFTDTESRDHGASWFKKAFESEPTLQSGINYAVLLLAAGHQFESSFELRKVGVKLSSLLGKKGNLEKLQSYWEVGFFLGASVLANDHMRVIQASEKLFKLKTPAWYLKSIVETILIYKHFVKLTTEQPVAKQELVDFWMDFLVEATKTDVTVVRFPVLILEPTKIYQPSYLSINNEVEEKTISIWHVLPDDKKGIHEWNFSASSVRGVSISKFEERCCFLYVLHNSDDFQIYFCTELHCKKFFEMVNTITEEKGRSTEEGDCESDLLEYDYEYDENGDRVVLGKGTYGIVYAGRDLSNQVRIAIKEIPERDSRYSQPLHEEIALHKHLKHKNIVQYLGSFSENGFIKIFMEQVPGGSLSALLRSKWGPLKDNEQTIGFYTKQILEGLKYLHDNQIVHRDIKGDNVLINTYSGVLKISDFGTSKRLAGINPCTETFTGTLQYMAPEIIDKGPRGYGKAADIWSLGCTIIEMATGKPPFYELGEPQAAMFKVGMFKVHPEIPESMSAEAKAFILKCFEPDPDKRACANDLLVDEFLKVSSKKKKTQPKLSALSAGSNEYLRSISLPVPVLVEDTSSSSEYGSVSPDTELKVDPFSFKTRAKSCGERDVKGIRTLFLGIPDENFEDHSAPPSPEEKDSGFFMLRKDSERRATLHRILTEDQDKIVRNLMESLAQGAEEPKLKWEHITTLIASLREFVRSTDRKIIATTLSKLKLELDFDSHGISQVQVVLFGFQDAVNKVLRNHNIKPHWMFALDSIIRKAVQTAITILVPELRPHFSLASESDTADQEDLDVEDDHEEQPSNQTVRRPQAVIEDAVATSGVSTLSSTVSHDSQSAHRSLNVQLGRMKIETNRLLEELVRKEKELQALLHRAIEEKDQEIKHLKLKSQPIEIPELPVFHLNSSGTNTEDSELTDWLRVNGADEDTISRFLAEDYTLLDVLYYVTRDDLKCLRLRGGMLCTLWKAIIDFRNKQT
Sequence of PIM1 (P11309 whole entry): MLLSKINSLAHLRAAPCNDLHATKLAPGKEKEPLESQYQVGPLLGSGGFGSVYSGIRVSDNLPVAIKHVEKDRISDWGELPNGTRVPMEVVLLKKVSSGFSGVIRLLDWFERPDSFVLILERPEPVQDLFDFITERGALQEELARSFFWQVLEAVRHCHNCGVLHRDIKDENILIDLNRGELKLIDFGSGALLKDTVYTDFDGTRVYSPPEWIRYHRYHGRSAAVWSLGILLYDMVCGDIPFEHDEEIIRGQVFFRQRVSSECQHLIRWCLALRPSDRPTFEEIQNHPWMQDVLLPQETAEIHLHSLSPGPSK
Sequence of TLK1 (Q9UKI8 whole entry): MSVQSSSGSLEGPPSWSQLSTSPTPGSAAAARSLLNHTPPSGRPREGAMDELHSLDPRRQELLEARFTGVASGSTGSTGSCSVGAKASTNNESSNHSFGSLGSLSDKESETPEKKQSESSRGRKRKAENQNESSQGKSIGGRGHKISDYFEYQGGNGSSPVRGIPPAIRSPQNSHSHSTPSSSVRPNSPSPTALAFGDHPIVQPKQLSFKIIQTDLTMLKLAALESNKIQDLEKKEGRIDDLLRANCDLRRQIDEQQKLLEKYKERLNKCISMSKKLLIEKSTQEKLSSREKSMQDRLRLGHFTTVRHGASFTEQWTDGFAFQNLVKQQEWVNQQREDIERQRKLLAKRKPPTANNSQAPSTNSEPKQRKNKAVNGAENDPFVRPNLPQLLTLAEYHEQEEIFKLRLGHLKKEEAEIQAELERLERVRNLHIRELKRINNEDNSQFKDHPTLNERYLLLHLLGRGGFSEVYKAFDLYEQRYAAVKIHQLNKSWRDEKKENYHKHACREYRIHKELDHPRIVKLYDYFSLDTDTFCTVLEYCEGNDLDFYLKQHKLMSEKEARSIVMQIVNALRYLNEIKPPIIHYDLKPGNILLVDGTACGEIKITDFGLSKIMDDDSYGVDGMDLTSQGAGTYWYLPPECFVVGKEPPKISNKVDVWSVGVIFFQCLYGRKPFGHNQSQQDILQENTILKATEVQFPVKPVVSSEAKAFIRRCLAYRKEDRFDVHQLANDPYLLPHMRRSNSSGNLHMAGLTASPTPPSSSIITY
Sequence of AKT1 (P31749 whole entry): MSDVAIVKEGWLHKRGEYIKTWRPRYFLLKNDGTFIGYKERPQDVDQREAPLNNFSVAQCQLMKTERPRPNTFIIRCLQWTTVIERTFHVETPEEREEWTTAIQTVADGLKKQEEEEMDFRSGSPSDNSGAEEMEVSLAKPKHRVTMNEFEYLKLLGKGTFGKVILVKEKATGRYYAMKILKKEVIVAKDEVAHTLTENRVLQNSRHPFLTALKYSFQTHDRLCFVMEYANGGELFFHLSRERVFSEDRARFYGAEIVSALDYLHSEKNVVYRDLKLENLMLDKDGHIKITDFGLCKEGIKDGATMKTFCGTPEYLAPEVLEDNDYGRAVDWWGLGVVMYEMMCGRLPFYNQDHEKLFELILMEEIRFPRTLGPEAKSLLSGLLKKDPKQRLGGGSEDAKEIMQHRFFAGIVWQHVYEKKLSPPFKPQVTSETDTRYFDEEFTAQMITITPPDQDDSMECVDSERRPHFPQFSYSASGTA
Sequence of GRK4 (P32298 whole entry): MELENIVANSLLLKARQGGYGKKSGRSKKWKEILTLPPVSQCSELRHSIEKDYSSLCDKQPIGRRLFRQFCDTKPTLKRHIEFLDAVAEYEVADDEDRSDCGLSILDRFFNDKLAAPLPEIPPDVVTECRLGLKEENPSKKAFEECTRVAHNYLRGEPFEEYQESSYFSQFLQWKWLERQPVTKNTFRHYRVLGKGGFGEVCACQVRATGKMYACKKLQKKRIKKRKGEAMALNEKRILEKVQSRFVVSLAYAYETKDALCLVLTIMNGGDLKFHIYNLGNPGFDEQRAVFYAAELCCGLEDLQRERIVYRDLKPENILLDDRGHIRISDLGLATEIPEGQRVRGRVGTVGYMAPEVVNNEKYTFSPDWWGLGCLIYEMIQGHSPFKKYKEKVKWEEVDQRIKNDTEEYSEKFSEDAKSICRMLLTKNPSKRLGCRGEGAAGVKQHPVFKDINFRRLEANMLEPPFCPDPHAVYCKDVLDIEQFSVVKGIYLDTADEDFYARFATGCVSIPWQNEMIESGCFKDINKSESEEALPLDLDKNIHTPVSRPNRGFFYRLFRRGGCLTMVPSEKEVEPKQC
Sequence of MELK (Q14680 whole entry): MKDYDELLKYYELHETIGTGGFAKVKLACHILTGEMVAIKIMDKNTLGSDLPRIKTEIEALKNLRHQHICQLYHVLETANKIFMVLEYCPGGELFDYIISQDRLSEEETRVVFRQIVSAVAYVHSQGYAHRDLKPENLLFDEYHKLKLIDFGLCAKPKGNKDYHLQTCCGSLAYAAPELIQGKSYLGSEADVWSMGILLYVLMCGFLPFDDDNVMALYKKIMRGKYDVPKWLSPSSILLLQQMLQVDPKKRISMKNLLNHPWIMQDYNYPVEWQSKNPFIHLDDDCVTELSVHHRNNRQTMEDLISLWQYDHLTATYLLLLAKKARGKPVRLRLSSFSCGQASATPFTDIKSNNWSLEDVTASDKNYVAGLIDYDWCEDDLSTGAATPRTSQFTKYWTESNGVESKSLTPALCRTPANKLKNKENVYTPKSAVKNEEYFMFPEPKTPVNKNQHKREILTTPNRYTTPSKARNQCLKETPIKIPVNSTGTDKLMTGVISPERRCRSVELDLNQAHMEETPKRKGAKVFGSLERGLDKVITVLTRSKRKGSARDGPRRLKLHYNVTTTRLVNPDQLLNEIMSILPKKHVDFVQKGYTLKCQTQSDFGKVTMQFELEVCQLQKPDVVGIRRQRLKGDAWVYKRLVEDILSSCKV
Sequence of NEK11 (Q8NG66 whole entry): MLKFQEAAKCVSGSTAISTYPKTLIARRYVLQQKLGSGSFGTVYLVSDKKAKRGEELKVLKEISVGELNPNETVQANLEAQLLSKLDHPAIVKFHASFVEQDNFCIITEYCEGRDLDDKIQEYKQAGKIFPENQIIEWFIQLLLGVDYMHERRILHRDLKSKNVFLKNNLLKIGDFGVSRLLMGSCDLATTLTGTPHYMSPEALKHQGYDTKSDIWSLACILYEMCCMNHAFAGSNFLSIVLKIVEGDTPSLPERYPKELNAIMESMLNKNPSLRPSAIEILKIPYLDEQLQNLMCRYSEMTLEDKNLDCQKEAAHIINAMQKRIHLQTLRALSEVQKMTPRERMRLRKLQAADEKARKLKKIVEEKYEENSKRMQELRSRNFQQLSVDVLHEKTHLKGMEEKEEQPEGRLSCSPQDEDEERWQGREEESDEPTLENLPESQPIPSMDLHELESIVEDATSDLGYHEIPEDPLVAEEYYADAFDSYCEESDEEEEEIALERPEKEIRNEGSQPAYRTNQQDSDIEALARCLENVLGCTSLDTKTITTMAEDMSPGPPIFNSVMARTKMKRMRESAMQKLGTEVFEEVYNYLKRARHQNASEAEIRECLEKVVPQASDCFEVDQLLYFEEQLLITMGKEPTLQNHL

C#C[C@@](C)(c1ccc(Cl)cc1)c1csc(NC(=O)c2c(F)cc(N3CCNCC3)cc2F)n1 (stereo in doubt) [DF-003]
remaining activity at 10 µM [1]: 79.3%
remaining activity at 10 µM [2]: 134%
remaining activity at 10 µM [3]: 114%
remaining activity at 10 µM [4]: 92.3%
remaining activity at 10 µM [5]: 113%
remaining activity at 10 µM [6]: 84.2%
remaining activity at 10 µM [7]: 90.5%
remaining activity at 10 µM [8]: 115%
remaining activity at 10 µM [9]: 96.5%
remaining activity at 10 µM [10]: 90.1%
remaining activity at 10 µM [11]: 81.4%
remaining activity at 10 µM [12]: 56.8%
remaining activity at 10 µM [13]: 108%
remaining activity at 10 µM [14]: 109%
remaining activity at 10 µM [15]: 84.2%
remaining activity at 10 µM [16]: 93.5%
remaining activity at 10 µM [17]: 62.4%
general immunosuppression [18]: no general immunosuppression was observed
remaining activity at 10 µM [19]: 58.1%
remaining activity at 10 µM [20]: 98.4%
remaining activity at 10 µM [21]: 136%
remaining activity at 10 µM [22]: 95.5%
remaining activity at 10 µM [23]: 91.6%
remaining activity at 10 µM [24]: 105%
remaining activity at 10 µM [25]: 90.6%
remaining activity at 10 µM [26]: 74%
remaining activity at 10 µM [27]: 91%
remaining activity at 10 µM [28]: 87.3%
remaining activity at 10 µM [29]: 96.6%
remaining activity at 10 µM [30]: 107%
remaining activity at 10 µM [31]: 77.5%
remaining activity at 10 µM [32]: 83.8%
remaining activity at 10 µM [33]: 97.9%
remaining activity at 10 µM [34]: 125%
remaining activity at 10 µM [35]: 92.8%
remaining activity at 10 µM [36]: 94.6%
remaining activity at 10 µM [37]: 90.6%
remaining activity at 10 µM [38]: 52.2%
remaining activity at 10 µM [39]: 75.3%
remaining activity at 10 µM [40]: 126%
